ChEMBL document CHEMBL4334456, “Moscatilin Ameliorates Tau Phosphorylation and Cognitive Deficits in Alzheimer's Disease Models” (J Nat Prod, 2019)
Activity calls are given as the source filed them. No cut-off for these calls is given here.

Experiments:
[1] = biological target: Glycogen synthase kinase-3 beta (Mus musculus) (UniProt Q9WV60); assay: Inhibition of GSK-3beta in mouse Neuro2a cells harboring with pCAX/FLAG-tagged APP and pRK5/EGFP-tagged Tau P301L mutant at 0.1 to 10 uM assessed as reduction in GSK-3beta phosphorylation at Tyr216 residues after 24 hrs by Western blot analysis; format: cell-based
Sequence of Glycogen synthase kinase-3 beta (Mus musculus) (Q9WV60 whole entry, looked up): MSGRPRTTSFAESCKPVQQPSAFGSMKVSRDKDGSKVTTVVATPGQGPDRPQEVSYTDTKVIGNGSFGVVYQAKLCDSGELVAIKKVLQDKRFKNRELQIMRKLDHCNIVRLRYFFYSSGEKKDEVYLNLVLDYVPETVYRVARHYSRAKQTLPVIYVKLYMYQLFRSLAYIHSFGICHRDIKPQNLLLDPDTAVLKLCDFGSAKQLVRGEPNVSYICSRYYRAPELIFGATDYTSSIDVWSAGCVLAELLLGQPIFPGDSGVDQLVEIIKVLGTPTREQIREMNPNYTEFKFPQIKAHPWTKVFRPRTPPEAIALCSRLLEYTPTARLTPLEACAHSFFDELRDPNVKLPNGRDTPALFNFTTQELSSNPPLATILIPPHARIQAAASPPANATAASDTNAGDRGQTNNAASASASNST

[2] = biological target: Glycogen synthase kinase-3 beta (Homo sapiens) (UniProt P49841); assay: Inhibition of GSK-3beta in human SH-SY5Y cells assessed as reduction in GSK-3beta phosphorylation at Tyr216 residues at 0.1 to 5 uM pretreated for 24 hrs followed by OA addition and measured after 6 hrs by Western blot analysis; format: cell-based
Sequence of Glycogen synthase kinase-3 beta (Homo sapiens) (P49841 whole entry, looked up): as the sequence (Q9WV60 whole entry, looked up) above, with P390T, A392T, T400A, A402T counted along it

N2a [3] = assay: Cytotoxicity against mouse Neuro2a cells assessed as reduction in cell viability after 12 hrs by MTT assay; format: cell-based
N2a [4] = assay: Cytotoxicity against mouse Neuro2a cells assessed as reduction in cell viability after 24 hrs by MTT assay; format: cell-based
SH-SY5Y [5] = assay: Cytotoxicity against human SH-SY5Y cells assessed as reduction in cell viability after 12 hrs by MTT assay; format: cell-based
SH-SY5Y [6] = assay: Cytotoxicity against human SH-SY5Y cells assessed as reduction in cell viability after 24 hrs by MTT assay; format: cell-based
[7] = biological target: Glycogen synthase kinase-3 beta (Mus musculus) (UniProt Q9WV60); assay: Inhibition of GSK-3beta in mouse Neuro2a cells harboring with pCAX/FLAG-tagged APP and pRK5/EGFP-tagged Tau P301L mutant assessed as reduction in tau phosphorylation at S396 residues after 12 to 24 hrs by Western blot analysis; format: cell-based
[8] = biological target: Glycogen synthase kinase-3 beta (Mus musculus) (UniProt Q9WV60); assay: Inhibition of GSK-3beta in mouse Neuro2a cells harboring with pCAX/FLAG-tagged APP and pRK5/EGFP-tagged Tau P301L mutant assessed as reduction in tau phosphorylation at S404 residues after 12 to 24 hrs by Western blot analysis; format: cell-based
[9] = biological target: Glycogen synthase kinase-3 beta (Homo sapiens) (UniProt P49841); assay: Inhibition of GSK-3beta in human SH-SY5Y cells harboring with pCAX/FLAG-tagged APP and pRK5/EGFP-tagged Tau P301L mutant assessed as reduction in tau phosphorylation at S396 residues after 12 to 24 hrs by Western blot analysis; format: cell-based
[10] = biological target: Glycogen synthase kinase-3 beta (Homo sapiens) (UniProt P49841); assay: Inhibition of GSK-3beta in human SH-SY5Y cells harboring with pCAX/FLAG-tagged APP and pRK5/EGFP-tagged Tau P301L mutant assessed as reduction in tau phosphorylation at S404 residues after 12 to 24 hrs by Western blot analysis; format: cell-based
N2a [11] = assay: Effect on total tau protein level in mouse Neuro2a cells harboring with pCAX/FLAG-tagged APP and pRK5/EGFP-tagged Tau P301L mutant at 0.1 to 10 uM after 12 to 24 hrs by Western blot analysis; format: ADME, cell-based
SH-SY5Y [12] = assay: Effect on total tau protein level in human SH-SY5Y cells harboring with pCAX/FLAG-tagged APP and pRK5/EGFP-tagged Tau P301L mutant at 0.1 to 10 uM after 12 to 24 hrs by Western blot analysis; format: ADME, cell-based
[13] = biological target: Glycogen synthase kinase-3 beta (Mus musculus) (UniProt Q9WV60); assay: Inhibition of GSK-3beta in mouse Neuro2a cells harboring with pCAX/FLAG-tagged APP and pRK5/EGFP-tagged Tau P301L mutant at 0.1 to 10 uM assessed as increase in GSK-3beta phosphorylation at Ser9 residues after 24 hrs by Western blot analysis; format: cell-based
[14] = biological target: Glycogen synthase kinase-3 beta (Mus musculus) (UniProt Q9WV60); assay: Inhibition of GSK3beta in mouse Neuro2a cells assessed as reduction in tau phosphorylation at S202/T205 residues at 0.1 to 5 uM pretreated for 12 to 24 hrs followed by OA addition and measured after 6 hrs by Western blot analysis; format: cell-based
[15] = biological target: Glycogen synthase kinase-3 beta (Mus musculus) (UniProt Q9WV60); assay: Inhibition of GSK3beta in mouse Neuro2a cells assessed as reduction in tau phosphorylation at S262 residues at 0.1 to 5 uM pretreated for 12 to 24 hrs followed by OA addition and measured after 6 hrs by Western blot analysis; format: cell-based
[16] = biological target: Glycogen synthase kinase-3 beta (Homo sapiens) (UniProt P49841); assay: Inhibition of GSK3beta in human SH-SY5Y cells assessed as reduction in tau phosphorylation at S202/T205 residues at 0.1 to 5 uM pretreated for 12 to 24 hrs followed by OA addition and measured after 6 hrs by Western blot analysis; format: cell-based
[17] = biological target: Glycogen synthase kinase-3 beta (Homo sapiens) (UniProt P49841); assay: Inhibition of GSK3beta in human SH-SY5Y cells assessed as reduction in tau phosphorylation at S262 residues at 0.1 to 5 uM pretreated for 12 to 24 hrs followed by OA addition and measured after 6 hrs by Western blot analysis; format: cell-based
N2a [18] = assay: Effect on total tau protein level in mouse Neuro2a cells at 0.1 to 5 uM pretreated for 12 to 24 hrs followed by OA addition and measured after 6 hrs by Western blot analysis; format: cell-based
SH-SY5Y [19] = assay: Effect on total tau protein level in human SH-SY5Y cells at 0.1 to 5 uM pretreated for 12 to 24 hrs followed by OA addition and measured after 6 hrs by Western blot analysis; format: ADME, cell-based
[20] = biological target: Glycogen synthase kinase-3 beta (Homo sapiens) (UniProt P49841); assay: Inhibition of GSK-3beta in human SH-SY5Y cells harboring with pCAX/FLAG-tagged APP and pRK5/EGFP-tagged Tau P301L mutant at 0.1 to 10 uM assessed as reduction in GSK-3beta phosphorylation at Tyr216 residues after 24 hrs by Western blot analysis; format: cell-based
[21] = biological target: Glycogen synthase kinase-3 beta (Homo sapiens) (UniProt P49841); assay: Inhibition of GSK-3beta in human SH-SY5Y cells harboring with pCAX/FLAG-tagged APP and pRK5/EGFP-tagged Tau P301L mutant at 0.1 to 10 uM assessed as increase in GSK-3beta phosphorylation at Ser9 residues after 24 hrs by Western blot analysis; format: cell-based
[22] = biological target: Glycogen synthase kinase-3 beta (Homo sapiens) (UniProt P49841); assay: Inhibition of GSK-3beta in human SH-SY5Y cells assessed as increase in GSK-3beta phosphorylation at Ser9 residues at 0.1 to 5 uM pretreated for 24 hrs followed by OA addition and measured after 6 hrs by Western blot analysis; format: cell-based
SH-SY5Y [23] = assay: Antioxidant activity in OA-induced human SH-SY5Y cells assessed as increase in MDA level at 0.1 to 1 uM pretreated for 12 hrs followed by OA addition and measured after 12 hrs; format: functional, cell-based
SH-SY5Y [24] = assay: Antioxidant activity in OA-induced human SH-SY5Y cells assessed as decrease in GSH level at 0.1 to 1 uM pretreated for 12 hrs followed by OA addition and measured after 12 hrs; format: functional, cell-based
[25] = biological target: c-Jun N-terminal kinase, JNK (Homo sapiens) (UniProt P45983+P53779+P45984); assay: Inhibition of JNK phosphorylation in OA-induced human SH-SY5Y cells pretreated for 24 hrs followed by OA addition and measured after 6 hrs by Western blot analysis; format: cell-based
SH-SY5Y [26] = assay: Inhibition of ERK phosphorylation in OA-induced human SH-SY5Y cells pretreated for 24 hrs followed by OA addition and measured after 6 hrs by Western blot analysis; format: cell-based
[27] = biological target: MAP kinase p38 (Homo sapiens) (UniProt O15264+Q15759+Q16539+P53778); assay: Inhibition of p38 phosphorylation in OA-induced human SH-SY5Y cells pretreated for 24 hrs followed by OA addition and measured after 6 hrs by Western blot analysis; format: cell-based
SH-SY5Y [28] = assay: Inhibition of tau aggregation in OA-induced human SH-SY5Y cells at 0.1 to 5 uM pretreated for 24 hrs followed by OA addition and measured after 6 hrs by Western blot analysis; format: functional, cell-based
SH-SY5Y [29] = assay: Effect on cell cycle arrest in OA-induced human SH-SY5Y cells assessed as accumulation at sub-G1 phase at 0.1 uM pretreated for 6 hrs followed by OA addition and measured after 16 hrs […] (reference value: 32.28%); format: functional
Mus musculus [30] = assay: Anti-alzhemeric activity in scopolamine-induced ICR mouse assessed as increase in swimming distance at 25 to 100 mg/kg, ip for 2 weeks followed by scopolamine treatment and measured after 90 mins by Morris water maze test; format: functional, organism-based
Mus musculus [31] = assay: Anti-alzhemeric activity in scopolamine-induced ICR mouse assessed as increase in time spent in the target quadrant at 25 to 100 mg/kg, ip for 2 weeks followed by scopolamine treatment and measured after 90 mins by Morris water maze test; format: functional, organism-based
Mus musculus [32] = assay: Anti-alzhemeric activity in scopolamine-induced ICR mouse assessed as increase in swimming speed at 25 to 100 mg/kg, ip for 2 weeks followed by scopolamine treatment and measured after 90 mins by Morris water maze test; format: functional, organism-based
Mus musculus [33] = assay: Reversal of scopolamine-induced spatial memory impairment in ICR mouse assessed as decrease in time spent on […] at 25 to 100 mg/kg, ip for 2 weeks followed by scopolamine treatment and measured after 90 mins by Morris water maze test; format: functional, organism-based
Mus musculus [34] = assay: Anti-alzhemeric activity in scopolamine-induced ICR mouse assessed as inhibition of tau phosphorylation at S202/T205 residues in brain at 25 to 100 mg/kg, ip for 2 weeks followed by scopolamine treatment by Western blot analysis; format: functional, organism-based
Mus musculus [35] = assay: Anti-alzhemeric activity in scopolamine-induced ICR mouse assessed as inhibition of tau phosphorylation at Ser262 residues in brain at 25 to 100 mg/kg, ip for 2 weeks followed by scopolamine treatment by Western blot analysis; format: functional, organism-based
Mus musculus [36] = assay: Anti-alzhemeric activity in scopolamine-induced ICR mouse assessed as inhibition of tau phosphorylation at Ser396 residues in brain at 25 to 100 mg/kg, ip for 2 weeks followed by scopolamine treatment by Western blot analysis; format: functional, organism-based
Mus musculus [37] = assay: Anti-alzhemeric activity in scopolamine-induced ICR mouse assessed as increase in GSK-3beta phosphorylation Ser9 residues in brain at 25 to 100 mg/kg, ip for 2 weeks followed by scopolamine treatment by Western blot analysis; format: functional, organism-based
Mus musculus [38] = assay: Anti-alzhemeric activity in scopolamine-induced ICR mouse assessed as reduction in tau phosphorylation at S202/T205 residues in hippocampal CA1 region at 25 to 100 mg/kg, ip for 2 weeks followed by scopolamine treatment by immunohistochemistry-based analysis; format: functional, organism-based
Mus musculus [39] = assay: Anti-alzhemeric activity in scopolamine-induced ICR mouse assessed as increase in GSK-3beta phosphorylation Ser9 residues in hippocampal CA1 region at 25 to 100 mg/kg, ip for 2 weeks followed by scopolamine treatment by immunohistochemistry-based analysis; format: functional, organism-based
[40] = Toxicity in ICR mouse assessed as effect on body weight at 25 to 100 mg/kg, ip for 2 weeks; format: organism-based; details: in vivo, 336 h
[41] = Toxicity in ICR mouse assessed as effect on body weight at 1 mg/kg, ip for 2 weeks; format: organism-based; details: in vivo, 336 h

With `COc1cc(CCc2cc(OC)c(O)c(OC)c2)ccc1O` [MOSCATILIN] the inhibition [1] was “Active”, the inhibition [2] was “Active” and the IC50 (N2a [3]) was over 20 µM. For the same compound, the IC50 (N2a [4]) was over 20 µM, the IC50 (SH-SY5Y [5]) was over 20 µM and the IC50 (SH-SY5Y [6]) was over 20 µM. For the same compound, the inhibition [7] was “Dose-dependent effect”, the inhibition [8] was “Dose-dependent effect” and the inhibition [9] was “Dose-dependent effect”. The inhibition [10] was “Dose-dependent effect”, the Activity (N2a [11]) was “Non-Toxic” and the Activity (SH-SY5Y [12]) was “Non-Toxic”. For the same compound, the inhibition [13] was “Active”, the inhibition [14] was “Active” and the inhibition [15] was “Active”. The inhibition [16] was “Active”, the inhibition [17] was “Active” and the Activity (N2a [18]) was “Non-Toxic”. The Activity (SH-SY5Y [19]) was “Non-Toxic”, the inhibition [20] was “Active” and the inhibition [21] was “Active”. For the same compound, the inhibition [22] was “Active”, the Activity (SH-SY5Y [23]) was “Active” and the Activity (SH-SY5Y [24]) was “Active”. For the same compound, the inhibition [25] was “Dose-dependent effect”, the inhibition (SH-SY5Y [26]) was “Dose-dependent effect” and the inhibition [27] was “Dose-dependent effect”. For the same compound, the inhibition (SH-SY5Y [28]) was “Active”, the Activity (SH-SY5Y [29]) was 20.81% and the Activity (Mus musculus [30]) was “Active”. The Activity (Mus musculus [31]) was “Active”, the Activity (Mus musculus [32]) was “inactive” and the Activity (Mus musculus [33]) was “Active”. For the same compound, the Activity (Mus musculus [34]) was “Active”, the Activity (Mus musculus [35]) was “Active” and the Activity (Mus musculus [36]) was “Active”. For the same compound, the Activity (Mus musculus [37]) was “Active”, the Activity (Mus musculus [38]) was “Active” and the Activity (Mus musculus [39]) was “Active”. The Activity [40] was “Non-Toxic” and the Activity [41] was “Non-Toxic”.
